Data: patent US12576155B2, “Senolytic and antiinflammatory prodrugs and methods of use thereof” (priority 2019, dated 2026)

Columns and labels:
[1] = system: senescent mouse fibroblasts induced by ionizing irradiation, oncogene overexpression, or genotoxic stress (etoposide treatment); experiment: Cell viability, oncogene-, etoposide- and irradiation-induced senescent MEFs; format: cell-based; details: oncogene- (Kras), etoposide- and irradiation- (10 Gy) induced senescent MEFs vs non-senescent; increasing doses
[2] = system: SA-β-gal-positive senescent cells in bleomycin-injured lungs; experiment: Bleomycin-induced lung injury (lung fibrosis and senescence) mouse model; format: in vivo, mice
Experimental: All drugs were mixed in 90% PBS, 5% Tween-80 (P1754, Sigma), and 5% polyethylene glycol (PEG) (81172, Sigma) and administered to mice by intraperitoneal (i.p.) injection. For treating bleomycin-injured young mice, SSK1 (0.5 mg/kg) or vehicle were given consecutive two days every week for five weeks. For old mice (20-month-old), SSK1 (0.5 mg/kg), gemcitabine (0.5 mg/kg) or vehicle were administrated for continued 3 days every two weeks. Gemcitabine was purchased from MCE.
Bleomycin was purchased from Selleck. To induce lung senescence and fibrosis, young male and female mice (3-month-old) were subjected to transtracheal injection of bleomycin (1 mg/kg) as previously reported (Bivas-Benita et al., Eur J Pharm Biopharm 61, 214-218(2005))
Cultured cells were washed once with PBS and fixed in β-galactosidase staining fix solution for 15 min at room temperature. Cells were then washed three times with PBS and incubated with β-galactosidase staining solution (Beyotime Biotechnology) for 16-20 hours at 37° C. For 12-well plates, 1 ml of β-galactosidase staining solution was added to each well. The plate was sealed with Parafilm to prevent evaporation of the staining medium. After the overnight incubation, cells were washed with PBS and observed under a bright field microscope. For β-galactosidase staining of frozen sections, the frozen sections were dried at 37° C. for 20-30 min and then fixed in β-galactosidase staining fix solution for 15 min at room temperature. The frozen sections were washed three times with PBS and incubated with β-galactosidase staining solution overnight at 37° C. After completion of β-galactosidase staining, the sections were stained with eosin for 1-2 min, rinsed under running water for 1 min, differentiated in 1% acid alcohol for 10-20 sec, and washed again under running water for 1 min. Sections were dehydrated in increasing concentrations of alcohols and cleared in xylene. Excess xylene was drained and a coverslip was placed over the section. After drying, the sample was observed under a microscope.
Lung, liver, and kidney frozen sections stained with SA-β-Gal were quantified by ImageJ software (NIH) to measure the SA-β-Gal positive area. The total area was quantified by eosin positive area with ImageJ software (NIH). The relative positive SA-β-Gal positive cells were calculated with the SA-β-Gal positive area divided by the total area. Each mouse was measured with 3-5 regions.
For detecting the p21 expression in lungs, we conducted the immunohistochemical staining experiment for p21 with an immunohistochemical staining kit (SP-9000, ZSGB-BIO). Freshly isolated tissues were fixed by 10% formalin for one day and then transferred in 20% formalin for another day. The tissue blocks were then dehydrated and embedded in paraffin. The embedded tissues were cut and affixed on slides. Before immunohistochemical staining, the slides were deparaffinized, rehydrated, and performed antigen retrieve by high pressure and high temperature in Tris/EDTA pH 8.0 buffer solution. Immunohistochemical staining was conducted according to the manufacturers' instructions.
Total RNA was isolated using the Direct-zol RNA MiniPrep Kit (Zymo Research, R2072). […] Data were analyzed using the 2^(−ΔΔCt) method. […]

[3] = system: GLB1 knockdown (shGLB1-1 and -2) senescent cells; experiment: Cell viability of GLB1 knockdown senescent cells; format: cell-based; details: SSK1 0.5 μM; shGLB1-1 and -2 vs shControl
Experimental: Plasmids used to interfere the expression of GLB1 with short hairpin RNAs (shRNAs) were obtained from Sigma MISSION shRNA. Genetic knockdown was performed according to the manufacturer's protocol.
Lentivirus production, collection, and infection were as described (Zhao et al., Cell Stem Cell 3, 475-479(2008)).
To test the viability of senescent and non-senescent cells treated with SSK1, cells were stained with a mixture of Hoechst 33342 and propidium iodide (PI) (CA1120, Solarbio) to distinguish living and dead cells. After treatment with the small molecules, the cell culture medium was removed, and the cells were washed once with PBS. Then, the cells were stained according to the manufacturer's protocol, where the final concentrations of Hoechst 33342 and PI were 5 μg/ml and 2 μg/ml in PBS buffer. The plate was incubated at 4° C. for 30 min and observed on a fluorescence microscope or automatic cell imaging system. Viable cells were quantified using a MD Image Xpress Micro XL (Molecular Devices).

[4] = system: replication-induced senescent mouse embryonic fibroblasts (MEFs) and their non-senescent counterparts; experiment: SSK1 metabolism analysis (release of gemcitabine, LC-MS/MS); format: in vitro ADME; details: 0.5 μM SSK1; senescent vs non-senescent MEFs; FIG. 1A
Experimental: To detect the release of gemcitabine from SSK1 in senescent and non-senescent cells, the metabolism analysis was performed as previous reported (Karampelas et al., Mol Pharmaceut 14, 674-685(2017)). Briefly, the senescent and non-senescent cells were incubated with 0.5 μM SSK1 in DMEM medium containing 10% FBS and 1% penicillin-streptomycin for the indicated time. Then the cells slightly washed with water for twice and then harvested. Cold methanol used to extract the compounds and samples were prepared after centrifugation. The concentration of gemcitabine was determined by LC-MS/MS analysis.

In the case of `CC(=O)OCC1O[C@@H](Oc2ccc(COC(=O)Nc3ccn([C@@H]4O[C@H](CO)C(O)C4(F)F)c(=O)n3)cc2[N+](=O)[O-])C(OC(C)=O)C(OC(C)=O)[C@H]1OC(C)=O` (some centres unmarked) [SSK1], the “Selective killing of senescent cells (viable cells)” value [1] is reported as “selectively killed by SSK1, while non-senescent cells were largely unaffected”, the “Decline in physical functions (treadmill exhaustion distance)” value ([2]; SSK1 0.5 mg/kg i.p.) is reported as “attenuated” and the Lung fibrosis ([2]; SSK1 0.5 mg/kg i.p.) is reported as “attenuated”. The “p21-positive cells and other senescence-associated markers in lungs (immunohistochemistry, RT-qPCR)” value ([2]; SSK1 0.5 mg/kg i.p.) was “decreased p21-positive cells and other senescence-associated markers”, the “Decrease of SA-β-gal-positive cells in lungs vs vehicle” value ([2]; SSK1 0.5 mg/kg i.p., five weeks) was 3.8 fold and the “β-gal positive macrophages in injured lungs” value ([2]; SSK1 0.5 mg/kg, xCell analysis of RNA-seq, FIG. 6C) was “reduction of β-gal positive macrophages was observed”. For the same compound, the “Effect of GLB1 knockdown on killing of senescent cells by SSK1” value [3] was “impaired the ability of SSK1 to kill SA-β-gal-positive senescent cells” and the “Metabolism of SSK1 into gemcitabine” value [4] was “specifically cleaved to release cytotoxic gemcitabine in senescent cells but not in non-senescent cells”.
